Assay results as given in ChEMBL document CHEMBL1150095, “Antitumor activity and stereochemistry of acetylenic alcohols from the sponge Cribrochalina vasculum” (1995).

Tests used:
Type in all cases: functional
NCI-H460 = assay: Antitumor activity against human NCI-H460 cells
NCI-H522 = assay: Antitumor activity against human NCI-H522 cells
COLO 205 = assay: Antitumor activity against human COLO205 cells
HCC 2998 = assay: Antitumor activity against human HCC2998 cells
HCT-116 = assay: Antitumor activity against human HCT116 cells
HCT-15 = assay: Antitumor activity against human HCT15 cells
HT-29 = assay: Antitumor activity against human HT-29 cells
KM12 = assay: Antitumor activity against human KM12 cells
SW-620 = assay: Antitumor activity against human SW620 cells
SF-268 = assay: Antitumor activity against human SF268 cells
SF-295 = assay: Antitumor activity against human SF295 cells
SF-539 = assay: Antitumor activity against human SF539 cells
SNB-19 = assay: Antitumor activity against human SNB19 cells
SNB-75 = assay: Antitumor activity against human SNB75 cells
U-251 = assay: Antitumor activity against human U251 cells
Malme-3M = assay: Antitumor activity against human MALME-3M cells
M14 = assay: Antitumor activity against human M14 cells
SK-MEL-2 = assay: Antitumor activity against human SK-MEL-2 cells
SK-MEL-28 = assay: Antitumor activity against human SK-MEL-28 cells
SK-MEL-5 = assay: Antitumor activity against human SK-MEL-5 cells
UACC-257 = assay: Antitumor activity against human UACC257 cells
UACC-62 = assay: Antitumor activity against human UACC62 cells
IGROV-1 = assay: Antitumor activity against human IGROV1 cells
OVCAR-3 = assay: Antitumor activity against human OVCAR-3 cells
OVCAR-4 = assay: Antitumor activity against human OVCAR4 cells
OVCAR-5 = assay: Antitumor activity against human OVCAR5 cells
OVCAR-8 = assay: Antitumor activity against human OVCAR8 cells
SK-OV-3 = assay: Antitumor activity against human SKOV3 cells
786-0 = assay: Antitumor activity against human 786-0 cells
A498 = assay: Antitumor activity against human A498 cells
[1] = read-out: pLC50 (the source's name) (converted)

SMILES: C#C[C@@H](O)/C=C/CCCCCCCCC/C=C\CCCCCC
- CC50 (NCI-H460; [1]): 151 nM
- TGI (NCI-H460; read-out: pTGI (converted)): 79.4 nM
- GI50 (NCI-H522): 0.115 nM
- LC50 (NCI-H522): 1.18 nM
- TGI (NCI-H522; read-out: pTGI (converted)): 0.436 nM
- GI50 (COLO 205): 43.6 nM
- CC50 (COLO 205; [1]): 141 nM
- TGI (COLO 205; read-out: pTGI (converted)): 79.4 nM
- GI50 (HCC 2998): 43.6 nM
- CC50 (HCC 2998; [1]): 141 nM
- TGI (HCC 2998; read-out: pTGI (converted)): 79.4 nM
- GI50 (HCT-116): 25.1 nM
- CC50 (HCT-116; [1]): 117 nM
- TGI (HCT-116; read-out: pTGI (converted)): 55 nM
- GI50 (HCT-15): 36.3 nM
- CC50 (HCT-15; [1]): 132 nM
- TGI (HCT-15; read-out: pTGI (converted)): 69.2 nM
- GI50 (HT-29): 30.9 nM
- CC50 (HT-29; [1]): 138 nM
- TGI (HT-29; read-out: pTGI (converted)): 66.1 nM
- GI50 (KM12): 37.1 nM
- CC50 (KM12; [1]): 132 nM
- TGI (KM12; read-out: pTGI): 70.8 nM
- GI50 (SW-620): 9.33 nM
- CC50 (SW-620; [1]): 112 nM
- TGI (SW-620; read-out: pTGI (converted)): 42.7 nM
- GI50 (SF-268): 38.9 nM
- CC50 (SF-268; [1]): 138 nM
- TGI (SF-268; read-out: pTGI (converted)): 74.1 nM
- GI50 (SF-295): 44.7 nM
- CC50 (SF-295; [1]): 145 nM
- TGI (SF-295; read-out: pTGI (converted)): 79.4 nM
- GI50 (SF-539): 44.7 nM
- CC50 (SF-539; [1]): 141 nM
- TGI (SF-539; read-out: pTGI (converted)): 79.4 nM
- GI50 (SNB-19): 52.5 nM
- CC50 (SNB-19; [1]): 151 nM
- TGI (SNB-19; read-out: pTGI (converted)): 89.1 nM
- GI50 (SNB-75): 12.3 nM
- CC50 (SNB-75; [1]): 107 nM
- TGI (SNB-75; read-out: pTGI (converted)): 43.6 nM
- GI50 (U-251): 40.7 nM
- CC50 (U-251; [1]): 138 nM
- TGI (U-251; read-out: pTGI (converted)): 74.1 nM
- GI50 (Malme-3M): 6.31 nM
- CC50 (Malme-3M; [1]): 72.4 nM
- TGI (Malme-3M; read-out: pTGI (converted)): 20.4 nM
- GI50 (M14): 8.32 nM
- CC50 (M14; [1]): 100 nM
- TGI (M14; read-out: pTGI (converted)): 39.8 nM
- GI50 (SK-MEL-2): 8.13 nM
- CC50 (SK-MEL-2; [1]): 83.2 nM
- TGI (SK-MEL-2; read-out: pTGI (converted)): 23.4 nM
- GI50 (SK-MEL-28): 41.7 nM
- CC50 (SK-MEL-28; [1]): 138 nM
- TGI (SK-MEL-28; read-out: pTGI (converted)): 75.9 nM
- GI50 (SK-MEL-5): 32.4 nM
- CC50 (SK-MEL-5; [1]): 129 nM
- TGI (SK-MEL-5; read-out: pTGI (converted)): 64.6 nM
- GI50 (UACC-257): 32.4 nM
- CC50 (UACC-257; [1]): 126 nM
- TGI (UACC-257; read-out: pTGI (converted)): 64.6 nM
- GI50 (UACC-62): 38.9 nM
- CC50 (UACC-62; [1]): 135 nM
- TGI (UACC-62; read-out: pTGI (converted)): 72.4 nM
- GI50 (IGROV-1): 0.562 nM
- CC50 (IGROV-1; [1]): 2.19 nM
- TGI (IGROV-1; read-out: pTGI (converted)): 1.12 nM
- GI50 (OVCAR-3): 49 nM
- CC50 (OVCAR-3; [1]): 145 nM
- TGI (OVCAR-3; read-out: pTGI (converted)): 85.1 nM
- GI50 (OVCAR-4): 18.6 nM
- CC50 (OVCAR-4; [1]): 112 nM
- TGI (OVCAR-4; read-out: pTGI (converted)): 51.3 nM
- GI50 (OVCAR-5): 46.8 nM
- CC50 (OVCAR-5; [1]): 145 nM
- TGI (OVCAR-5; read-out: pTGI (converted)): 81.3 nM
- GI50 (OVCAR-8): 37.1 nM
- CC50 (OVCAR-8; [1]): 132 nM
- TGI (OVCAR-8; read-out: pTGI): 70.8 nM
- GI50 (SK-OV-3): 61.7 nM
- CC50 (SK-OV-3; [1]): 158 nM
- TGI (SK-OV-3; read-out: pTGI (converted)): 100 nM
- GI50 (786-0): 42.7 nM
- CC50 (786-0; [1]): 138 nM
- TGI (786-0; read-out: pTGI (converted)): 77.6 nM
- GI50 (A498): 58.9 nM
- CC50 (A498; [1]): 155 nM
- TGI (A498; read-out: pTGI (converted)): 95.5 nM
